{
  "source": "patent US8461186B2",
  "about": "“Use of N-piperidine derivatives for the treatment of neurodegenerative pathologies” (Medestea Research & Production S.p.A., priority 2004, dated 2013)",
  "tested_on": "mean arterial blood pressure (MAP) and heart rate (HR) in the rat",
  "experiment": "Mean arterial blood pressure (MAP) and heart rate (HR) in myocardial ischaemia and reperfusion",
  "format": "in vivo",
  "conditions": "for HR: in beats/min (unit assumed); for MAP: in mmHg (unit assumed); for mean MAP and HR values versus the I/R group treated with the vehicle alone: rats subjected to I/R; for haemodynamic effects of infusion: sham operations (no LAD occlusion)",
  "experimental": "The rats (twenty per group) were anaesthetized by intraperitoneal injection of chloral hydrate (380 mg/kg) and were then tracheotomized, intubated and ventilated with ambient air by a suitable ventilator; body temperature was kept at 38° C.±1 and the right carotid artery was cannulated and connected to a pressure transducer to monitor the mean arterial blood pressure (MAP).\nThe coronary artery was occluded by tightening the occluder, a procedure which is correlated with the electrocardiographic and haemodynamic changes (drop in MAP) which are typical of myocardial ischaemia. After 25 minutes of myocardial ischaemia, the occluder was reopened, permitting reperfusion for 2 hours. The heart rate (HR) and MAP were monitored continuously.\nThe following test groups were considered: a) LAD occlusion (25 minutes) and reperfusion (2 hours) plus administration of the vehicle (saline solution, 3 ml/kg-v-bolus plus 1.8 ml/kg/h) starting 5 minutes after reperfusion and maintained during the reperfusion period; b) LAD occlusion and reperfusion plus administration of MP1002 or MP1001 (10 mg/kg injection in bolus) 5 minutes prior to reperfusion, followed by infusion of 2 mg/kg/h during the reperfusion period; c) sham operation (no LAD occlusion) and infusion of the vehicle; d) sham operation and infusion of MP1002 or MP1001 as described above.\nThe base haemodynamic results were similar in the various groups considered.",
  "key": {"[1]": {"conditions": "Sham operation, Occlusion 15 min"}, "[2]": {"conditions": "Sham operation, Occlusion 25 min"}, "[3]": {"conditions": "Sham operation, Reperfusion 15 min"}, "[4]": {"conditions": "Sham operation, Reperfusion 25 min"}},
  "data": [
    {"smiles": "CC1(C)CC(OC(=O)CCCCCCCCC(=O)OC2CC(C)(C)N(O)C(C)(C)C2)CC(C)(C)N1O", "note": "[MP1001, BIS(1-HYDROXYL-2,2,6,6-TETRAMETHYL-4-PIPERIDINYL)DECANDIOATE]", "values": [
      {"measurement": "HR", "setting": "I/R, Baseline", "value": "435 ± 25"},
      {"measurement": "MAP", "setting": "I/R, Baseline", "value": "125 ± 9"},
      {"measurement": "HR", "setting": "I/R, Occlusion 15 min", "value": "438 ± 31"},
      {"measurement": "MAP", "setting": "I/R, Occlusion 15 min", "value": "118 ± 12"},
      {"measurement": "HR", "setting": "I/R, Occlusion 25 min", "value": "430 ± 28"},
      {"measurement": "MAP", "setting": "I/R, Occlusion 25 min", "value": "111 ± 13"},
      {"measurement": "HR", "setting": "I/R, Reperfusion 15 min", "value": "425 ± 28"},
      {"measurement": "MAP", "setting": "I/R, Reperfusion 15 min", "value": "100 ± 10"},
      {"measurement": "HR", "setting": "I/R, Reperfusion 25 min", "value": "427 ± 26"},
      {"measurement": "MAP", "setting": "I/R, Reperfusion 25 min", "value": "95 ± 8"},
      {"measurement": "HR", "setting": "Sham operation, Baseline", "value": "422 ± 33"},
      {"measurement": "MAP", "setting": "Sham operation, Baseline", "value": "127 ± 16"},
      {"measurement": "HR", "setting": "[1]", "value": "422 ± 26"},
      {"measurement": "MAP", "setting": "[1]", "value": "125 ± 13"},
      {"measurement": "HR", "setting": "[2]", "value": "424 ± 48"},
      {"measurement": "MAP", "setting": "[2]", "value": "121 ± 11"},
      {"measurement": "HR", "setting": "[3]", "value": "427 ± 27"},
      {"measurement": "MAP", "setting": "[3]", "value": "112 ± 8"},
      {"measurement": "HR", "setting": "[4]", "value": "427 ± 23"},
      {"measurement": "MAP", "setting": "[4]", "value": "107 ± 16"},
      {"measurement": "mean MAP and HR values versus the I/R group treated with the vehicle alone", "value": "not significantly different"},
      {"measurement": "haemodynamic effects of infusion", "value": "no substantial haemodynamic effects"}
    ]},
    {"smiles": "CC1(C)CC(OC(=O)CCCCCCCCC(=O)OC2CC(C)(C)N(O)C(C)(C)C2)CC(C)(C)N1O", "note": "[MP1002, bis(1-oxyl-2,2,6,6-tetramethyl-4-piperidinyl)decandioate]", "values": [
      {"measurement": "HR", "setting": "I/R, Baseline", "value": "438 ± 30"},
      {"measurement": "MAP", "setting": "I/R, Baseline", "value": "127 ± 14"},
      {"measurement": "HR", "setting": "I/R, Occlusion 15 min", "value": "437 ± 32"},
      {"measurement": "MAP", "setting": "I/R, Occlusion 15 min", "value": "121 ± 14"},
      {"measurement": "HR", "setting": "I/R, Occlusion 25 min", "value": "431 ± 24"},
      {"measurement": "MAP", "setting": "I/R, Occlusion 25 min", "value": "114 ± 10"},
      {"measurement": "HR", "setting": "I/R, Reperfusion 15 min", "value": "427 ± 29"},
      {"measurement": "MAP", "setting": "I/R, Reperfusion 15 min", "value": "102 ± 11"},
      {"measurement": "HR", "setting": "I/R, Reperfusion 25 min", "value": "429 ± 25"},
      {"measurement": "MAP", "setting": "I/R, Reperfusion 25 min", "value": "97 ± 9"},
      {"measurement": "HR", "setting": "Sham operation, Baseline", "value": "421 ± 26"},
      {"measurement": "MAP", "setting": "Sham operation, Baseline", "value": "125 ± 15"},
      {"measurement": "HR", "setting": "[1]", "value": "420 ± 33"},
      {"measurement": "MAP", "setting": "[1]", "value": "123 ± 16"},
      {"measurement": "HR", "setting": "[2]", "value": "422 ± 25"},
      {"measurement": "MAP", "setting": "[2]", "value": "120 ± 11"},
      {"measurement": "HR", "setting": "[3]", "value": "428 ± 26"},
      {"measurement": "MAP", "setting": "[3]", "value": "110 ± 12"},
      {"measurement": "HR", "setting": "[4]", "value": "426 ± 32"},
      {"measurement": "MAP", "setting": "[4]", "value": "105 ± 9"},
      {"measurement": "mean MAP and HR values versus the I/R group treated with the vehicle alone", "value": "not significantly different"},
      {"measurement": "haemodynamic effects of infusion", "value": "no substantial haemodynamic effects"}
    ]}
  ]
}
